Data as given in publication PMC12040169 (PLOS Biology, 2025).

test: in vitro; conditions: human, hela cells, % viability

Row | Compound | viability at 28.5 h, 10 µM
1 | O=C(Cn1ccnc1)N1CCCCC1c1nc2ccccc2[nH]1 (centres unmarked) [CBK283936] | 107%
2 | COc1ccc(-c2ocnc2C(=O)NCCc2ccccc2F)cc1 [CBK283941] | 90%
3 | O=C(CN1C(=O)N2CCN=C2c2ccccc21)N1CCCC1 [CBK283945] | 91.9%
4 | CC1CCN(C(=O)CN2C(=O)N3CCN=C3c3ccccc32)CC1 [CBK283946] | 93.6%
5 | Cc1nc2c(c(=O)[nH]1)CN(Cc1ccc(Cl)c(Cl)c1)CC2 [CBK283949] | 88.7%
6 | Cc1nc2c(c(=O)[nH]1)CN(Cc1sccc1C)CC2 [CBK283950] | 91.1%
7 | Cc1nc2c(c(=O)[nH]1)CN(Cc1cc(F)ccc1F)CC2 [CBK283953] | 86.9%
8 | C=CCNC(=O)C1CCN(c2nc3ccccc3n2C)CC1 [CBK283955] | 92%
9 | CC1CC(C)CN(C(=O)CN2C(=O)N3CCN=C3c3ccccc32)C1 (centres unmarked) [CBK283960] | 90%
10 | CN(C)C(=O)CN1C(=O)N2CCN=C2c2ccccc21 [CBK283961] | 94.7%
11 | O=C1NC2(CCN(C(=O)Cc3ccsc3)CC2)Nc2ccccc21 [CBK283963] | 94.7%
12 | COCCn1c(=O)n(Cc2ccccc2F)c2cccnc21 [CBK283965] | 88.6%
13 | Clc1ccccc1CN1CCC(n2cnc3cccnc32)CC1 [CBK283967] | 105%
14 | c1csc(CN2CCC(n3cnc4cccnc43)CC2)c1 [CBK283968] | 101%
15 | Cc1nc2c(c(=O)[nH]1)CCN(Cc1ccc(-c3ccccc3)cc1)C2 [CBK283970] | 94.4%
16 | Cc1csc(NC(=O)c2ncoc2-c2cccs2)n1 [CBK283972] | 88.2%
17 | O=C(NCc1cccnc1)c1ncoc1-c1cccs1 [CBK283974] | 87.5%
18 | O=C(Nc1nccs1)c1ncoc1-c1cccs1 [CBK283975] | 102%
19 | O=C(NCc1ccc(F)cc1)c1ncoc1-c1cccs1 [CBK283976] | 91.7%
20 | Cc1cnc(NC(=O)c2ncoc2-c2cccs2)s1 [CBK283977] | 102%
21 | Cc1c(C(=O)NC2(c3ccc(F)cc3)CCCC2)cnn1C [CBK283978] | 90.9%

Row | Compound | viability at 28.5 h, 10 µM
22 | CCn1c(N2CCC(C(=O)NC(C)C)CC2)nc2ccccc21 [CBK283982] | 83.8%
23 | CCn1c(N2CCC(C(=O)NCC3CC3)CC2)nc2ccccc21 [CBK283983] | 104%
24 | Cn1c(CNC(=O)c2ncoc2-c2cccs2)nc2ccccc21 [CBK283985] | 78.6%
25 | CC(C)NC(=O)C1CCN(c2nc3ccccc3n2C)CC1 [CBK283986] | 87.5%
26 | Cc1nc2c(c(=O)[nH]1)CCN(Cc1cn(C(C)C)c3ccccc13)C2 [CBK283991] | 105%
27 | C=CCn1cc(CN2CCc3c(nc(C)[nH]c3=O)C2)c2ccccc21 [CBK283992] | 97.5%
28 | CCc1cccc2c(CN3CCc4c(nc(C)[nH]c4=O)C3)c[nH]c12 [CBK283993] | 94.6%
29 | Cc1nc2c(c(=O)[nH]1)CCN(Cc1[nH]c3ccccc3c1C)C2 [CBK283995] | 93%
30 | Cc1nc2c(c(=O)[nH]1)CCN(Cc1[nH]c3ccc(F)cc3c1C)C2 [CBK283996] | 89.4%
31 | O=C1NC2(CCN(C(=O)c3ccccc3F)CC2)Oc2ccccc21 [CBK283997] | 81.9%
32 | O=C1NC2(CCN(C(=O)c3cccs3)CC2)Oc2ccccc21 [CBK283998] | 87.3%
33 | O=C(C1CC1)N1CCC2(CC1)Nc1ccccc1-n1cccc12 [CBK284011] | 91.5%
34 | Cc1nc2c(c(=O)[nH]1)CN(Cc1cn(C(C)C)c3ccccc13)CC2 [CBK284014] | 93.5%
35 | CCN(CC)C(=O)Cn1c(=O)n(Cc2ccco2)c2ncccc21 [CBK284016] | 109%
36 | Cc1nn(CC(=O)OC(C)C)c(=O)c2cc3sccc3n12 [CBK284022] | 93.7%
37 | Cc1nn(CC(=O)NC2CCCC2)c(=O)c2cc3sccc3n12 [CBK284023] | 104%
38 | Cc1nn(CC(=O)NCC2CC2)c(=O)c2cc3sccc3n12 [CBK284025] | 94.5%
39 | Cc1nn(CC(=O)NC2CC2)c(=O)c2cc3ccsc3n12 [CBK284026] | 92.3%
40 | CCc1nn(CC(=O)NC2CC2)c(=O)c2cc3sccc3n12 [CBK284029] | 88.7%
41 | CCc1nn(CC(=O)N(C)C)c(=O)c2cc3sccc3n12 [CBK284031] | 91.3%
42 | O=C(c1ccccn1)N1C2CCC1CC(O)(c1ccco1)C2 (centres unmarked) [CBK284034] | 87%

Row | Compound | viability at 28.5 h, 10 µM
43 | O=C(C1CCCO1)N1C2CCC1CC(O)(c1ccco1)C2 (centres unmarked) [CBK284035] | 83%
44 | Cc1cc2nccc(C3CCCN(C(=O)OC(C)(C)C)C3)n2n1 (centres unmarked) [CBK284037] | 90.8%
45 | CC(C)C(=O)N1CCCC(n2nc(-c3cccs3)ccc2=O)C1 (centres unmarked) [CBK284038] | 92.3%
46 | Cc1nn(CC(=O)N2CCCCC2)c(=O)c2cc3sccc3n12 [CBK284040] | 93.6%
47 | Cc1nn(CC(=O)N2CCCC(C)C2)c(=O)c2cc3ccsc3n12 (centres unmarked) [CBK284041] | 81.7%
48 | Cc1nn(CC(=O)OC2CCCCC2)c(=O)c2cc3sccc3n12 [CBK284045] | 80.8%
49 | Cc1nn(CC(=O)N2CCCC(C)C2)c(=O)c2cc3sccc3n12 (centres unmarked) [CBK284046] | 87.7%
50 | Cn1ccnc1C1(O)CC2CCC(C1)N2C(=O)NC1CCCCC1 (centres unmarked) [CBK284049] | 88.5%
51 | Cn1ccnc1C1(O)CC2CCC(C1)N2C(=O)NCc1ccccc1 (centres unmarked) [CBK284050] | 81.3%
52 | Cn1ccnc1C1(O)CC2CCC(C1)N2C(=O)Nc1ccc(F)cc1 (centres unmarked) [CBK284051] | 85.7%
53 | COc1cccc(CC(=O)N2C3CCC2CC(O)(c2ccco2)C3)c1 (centres unmarked) [CBK284053] | 80.5%
54 | CCc1nn(CC(=O)NCC2CC2)c(=O)c2cc3sccc3n12 [CBK284055] | 90.5%
55 | Cc1nn(CC(=O)N2CCCC2)c(=O)c2cc3ccsc3n12 [CBK284057] | 88.7%
56 | O=C(CN1C2CCC1CC(O)(c1ccco1)C2)Nc1ccc(F)cc1 (centres unmarked) [CBK284062] | 87.6%
57 | Cc1cc2c(cc3c(=O)n(CC(=O)N4CCCCC4)nc(C)n32)s1 [CBK284063] | 95.3%
58 | CCN(CC)C(=O)Cn1nc(C)n2c(cc3sc(C)cc32)c1=O [CBK284064] | 96.1%
59 | CCOC(=O)C(C)n1nc(C)n2c(cc3sc(C)cc32)c1=O (centres unmarked) [CBK284066] | 76.8%
60 | Cc1cc2c(cc3c(=O)n(CC(=O)NC4CC4)nc(C)n32)s1 [CBK284067] | 74.3%
61 | Cc1cc2c(cc3c(=O)n(CC(=O)OC(C)C)nc(C)n32)s1 [CBK284071] | 98.6%
62 | CCOC(=O)Cn1nc(CC)n2c(cc3sccc32)c1=O [CBK284073] | 80.3%
63 | CCc1nn(Cc2ccccn2)c(=O)c2cc3sccc3n12 [CBK284074] | 46.8%

Row | Compound | viability at 28.5 h, 10 µM
64 | CCc1nn(CCN2CCCC2)c(=O)c2cc3sccc3n12 [CBK284075] | 83.5%
65 | CCc1nn(CC(=O)OC(C)C)c(=O)c2cc3sccc3n12 [CBK284076] | 75.3%
66 | Cc1nn(CC(=O)N2CCCCC2)c(=O)c2cc3ccsc3n12 [CBK284078] | 91%
67 | Cc1nn(CC(=O)NC(C)(C)C)c(=O)c2cc3ccsc3n12 [CBK284082] | 83.2%
68 | Cc1nn(CC(=O)N2CCC(C)CC2)c(=O)c2cc3sccc3n12 [CBK284083] | 80%
69 | Cc1nn(CC(=O)N2CCCCCC2)c(=O)c2cc3sccc3n12 [CBK284084] | 80.4%
70 | Cn1ccnc1C1(O)CC2CCC(C1)N2C(=O)c1ccc(F)cc1 (centres unmarked) [CBK284086] | 98.4%
71 | Cn1ccnc1C1(O)CC2CCC(C1)N2C(=O)c1ccc(Cl)cc1 (centres unmarked) [CBK284087] | 94.2%
72 | Cn1ccnc1C1(O)CC2CCC(C1)N2C(=O)c1cccs1 (centres unmarked) [CBK284088] | 94.2%
73 | CC1CCCN(C(=O)CN2C3CCC2CC(O)(c2ccco2)C3)C1 (centres unmarked) [CBK284095] | 98.8%
74 | CCOC(=O)Cn1nc(C)n2c(cc3sc(C)cc32)c1=O [CBK284096] | 82.3%
75 | CCc1nn(CC(=O)N(C)C)c(=O)c2cc3sc(C)cc3n12 [CBK284102] | 110%
76 | Cc1nn(CC(=O)NC2CCC2)c(=O)c2cc3ccsc3n12 [CBK284103] | 103%
77 | COc1ccccc1CC(=O)N1C2CCC1CC(O)(c1ccco1)C2 (centres unmarked) [CBK284106] | 88.8%
78 | CO[C@H]1CC[C@H](C(=O)N2C3CCC2CC(O)(c2ccco2)C3)CC1 (some centres unmarked) [CBK284107] | 96.7%
79 | CN(C(=O)CN1C2CCC1CC(O)(c1ccco1)C2)C1CCCCC1 (centres unmarked) [CBK284108] | 102%
80 | Cc1nn(CC(=O)NC2CCC2)c(=O)c2cc3sccc3n12 [CBK284110] | 108%
81 | Cc1nn(CC(=O)C(C)(C)C)c(=O)c2cc3sccc3n12 [CBK284111] | 87.2%
82 | O=C(C1CC1)N1CCC(Cn2nc(-c3ccccc3)ccc2=O)CC1 [CBK284115] | 89.7%
83 | CN(C)C(=O)CN1N=C(C(C)(C)C)Cn2c(cc3sccc32)C1=O [CBK284116] | 89.5%
